Source: patent publication EP4516280A1, “COSMETIC COMPOSITIONS” (The Boots Company plc, priority 2023, dated 2025)

Each molecule was assayed on mushroom tyrosinase (assay: Tyrosinase inhibition test (L-DOPA oxidation, absorbance at 470 nm)). Conditions: single compound, Concentration 0.1%.
Format: biochemical
Description: The tyrosinase inhibition test was used to determine the tyrosinase inhibition ability of the compounds. The test comprises adding the test compound to a solution of L-dihydroxyphenylalanine (L-(DOPA)) and mushroom tyrosinase. L-(DOPA) is converted to […] by the mushroom tyrosinase, causing a brown colour to form. Inhibition of this reaction prevents the brown colour formation. The lighter the colour at the end of the reaction, the stronger is the inhibitory effect of the active. Absorbance data may be collected using a plate reacted set up to have a kinetic read every 1 minute for 30 minutes, where absorbance is read at 470 nm.

Molecule	Tyrosinase Inhibition (%)
O=C(O)C(O)c1ccccc1 (centres unmarked) [B, Mandelic acid]	80.279%
C=C(C)[C@@H]1CCC(C)=C[C@H]1c1c(O)cc(CCCCC)cc1O [G, Cannabidiol isolate (CBD)]	9.134%
CC1(C)[C@@H](O[C@H]2O[C@H](C(=O)[O-])[C@@H](O)[C@H](O)[C@H]2O[C@@H]2O[C@H](C(=O)[O-])[C@@H](O)[C@H](O)[C@H]2O)CC[C@]2(C)[C@H]3C(=O)C=C4[C@@H]5C[C@@](C)(C(=O)O)CC[C@]5(C)CC[C@@]4(C)[C@]3(C)CC[C@@H]12.[K+].[K+] [H, Dipotassium glycyrrhizate (DPG)]	54.567%
CCCCCCCCCCCCCCC[C@@H](O)[C@@H](N)CO [K, Sphinganine]	-5.78%
Feruloyl oligopeptide-33	41.765%
